{"source": "patent US9440982B2", "about": "(Eolas Therapeutics, Inc., priority 2012, dated 2016)", "key": {"[1]": {"biological_target": "T1, cytochrome P450 3A4 isoform (Homo sapiens, UniProt P08684)", "T1 construct": "pre-incubated with human liver microsomes and NADPH; from tissue; host or cells: human liver microsomes", "T1 sequence (P08684 whole entry, canonical isoform)": "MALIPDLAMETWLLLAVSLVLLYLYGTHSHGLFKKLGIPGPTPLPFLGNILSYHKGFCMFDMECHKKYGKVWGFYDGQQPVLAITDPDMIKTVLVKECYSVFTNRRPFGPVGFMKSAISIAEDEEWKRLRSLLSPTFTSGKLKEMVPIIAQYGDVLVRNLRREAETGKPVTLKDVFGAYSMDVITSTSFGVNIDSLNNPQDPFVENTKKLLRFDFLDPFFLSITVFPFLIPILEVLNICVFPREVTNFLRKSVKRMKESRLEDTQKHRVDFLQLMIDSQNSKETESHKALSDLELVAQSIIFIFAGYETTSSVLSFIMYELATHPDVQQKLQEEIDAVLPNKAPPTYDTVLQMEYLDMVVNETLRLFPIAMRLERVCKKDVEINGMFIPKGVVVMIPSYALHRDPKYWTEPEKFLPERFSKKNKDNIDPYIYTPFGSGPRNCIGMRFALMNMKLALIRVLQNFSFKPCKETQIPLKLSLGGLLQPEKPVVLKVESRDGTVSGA", "assay": "Cytochrome P450 inhibition assay (midazolam hydroxylation)", "format": "in vitro ADME", "details": "10 μM test compound, midazolam at approximately its Km, human liver microsomes", "in_short": "(§1)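 Human liver microsomes; CYP3A4 activity as midazolam 1′-hydroxylation with substrate near Km, with or without 10 μM test compound, read as percent inhibition. For time-dependent inhibition, parallel samples were preincubated 30 min with NADPH before substrate, and percent inhibition compared with non-preincubated samples.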"}, "OX1": {"biological_target": "T2, OX1 (Homo sapiens, UniProt O43613)", "T2 construct": "expressed in transfected cells; host or cells: CHO (CHO-OX1, kept under selection antibiotic)", "T2 sequence (O43613 1-425)": "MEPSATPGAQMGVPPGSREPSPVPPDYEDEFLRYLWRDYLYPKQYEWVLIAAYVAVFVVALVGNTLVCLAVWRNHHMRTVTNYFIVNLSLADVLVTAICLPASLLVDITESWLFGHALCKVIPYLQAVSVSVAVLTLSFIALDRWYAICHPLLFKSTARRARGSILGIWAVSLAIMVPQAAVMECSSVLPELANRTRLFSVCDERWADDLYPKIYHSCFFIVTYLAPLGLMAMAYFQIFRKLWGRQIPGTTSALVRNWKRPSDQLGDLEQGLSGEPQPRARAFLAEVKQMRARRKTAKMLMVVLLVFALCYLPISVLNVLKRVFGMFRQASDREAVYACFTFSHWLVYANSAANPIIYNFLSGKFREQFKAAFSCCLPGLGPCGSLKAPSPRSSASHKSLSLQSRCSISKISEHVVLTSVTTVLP", "assay": "Orexin receptor cell-based functional assay, [Ca2+]i by FLIPR, CHO-OX1 cells", "in_short": "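CHO cells expressing human OX1 or OX2 loaded with calcium dye plus 2.5 mM probenecid at 37° C (calcium4, 30 min, or calcium6, 2 h), then exposed to compounds (0.1 nM-10 μM) for 30 min. Intracellular Ca2+ measured on FLIPR; antagonist format.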"}, "Hcrt-R1 WT and KO mice": {"test_system": "Hcrt-R1 WT and KO mice", "assay": "Nicotine self-administration assay (mice), with food self-administration", "format": "in vivo", "details": "for food self-administration (SA): KO and WT mice, systemic administration 30 min prior to the SA session; for nicotine SA: doses 0, 5 and 10 mg/kg", "description": "To generate Hcrt-R1^+/+ and […] mice, breeding pairs of male and female Hcrt-R1^+/− mice that were backcrossed >10 generations on a C57BL/6 background were obtained from Jackson Laboratory (Bar Harbor, Me.). For all experiments, mice weighing 25-35 g were housed in groups of 2-3 per cage, in a temperature-controlled vivarium under a reversed 12-h light/dark cycle (lights off at 8 am). Food and water were provided ad libitum until behavioral training commenced. During training, mice were food-restricted to maintain ˜85-90% of their free-feeding body weight. Behavioral testing occurred during the dark portion of the light/dark cycle between the hours of 9 am-1 pm, during the early portion of the dark phase of the cycle. All procedures were conducted in strict adherence with the National Institutes of Health Guide for the Care and Use of Laboratory Animals and were approved by the Institutional Animal Care and Use Committee of The Scripps Research Institute.\nMice were anesthetized by inhalation of 1-3% isoflurane in oxygen and silastic catheters were inserted into the jugular veins. Briefly, the catheters consisted of a 6 cm length of silastic tubing fitted to a guide cannula (Plastics One, Wallingford, Conn.), bent at a curved right angle and encased in dental acrylic. The catheter tubing was passed subcutaneously from each animal's back to the right jugular vein, and 1 cm length of the catheter tip was inserted into the vein. After surgery, catheters were flushed daily with 0.1 ml of a heparinized (30 USP units/ml) sterile saline solution. Following 7 d of surgical recovery, mice were mildly food restricted to 85-90% of their free-feeding body weight and trained to press a lever in an operant chamber (Med Associates, St. Albans, Vt.) for food pellets (20 mg; TestDiet, Richmond, Ind.) under a fixed-ratio 5, time out 20-s (FR5TO20 s) schedule of reinforcement […]. Once stable responding was achieved (>25 pellets per session), mice were permitted to acquire IV nicotine self-administration by autoshaping during 1-h daily sessions, 7 days per week. Nicotine was delivered through the tubing into the IV catheter by a Razel syringe pump (Med Associates). […] After 1 week, the nicotine dose was increased to 0.1 mg/kg/inf for the remainder of the experiment, including subsequent training and test sessions. […] During the TO period, responding on the lever was recorded but without scheduled consequence. […]\nFor Hcrt-R1 re-expression studies, the human Hcrt-R1 gene was cloned into the pCDF1 lentivirus expression vector containing copGFP (GFP cloned from copepod Pontellina plumata) from Systems Biosciences. […] Viral supernatant titres were determined using the Lentivector Rapid Titer Kit from System Biosciences, according to the manufacturer's instructions. […]"}, "CYP3A4": {"biological_target": "T3, CYP3A4 (Homo sapiens, UniProt P08684)", "T3 construct": "pre-incubated with human liver microsomes and NADPH; from tissue; host or cells: human liver microsomes", "T3 sequence (P08684 whole entry)": "as the sequence (P08684 whole entry, canonical isoform) above", "assay": "Cytochrome P450 inhibition assay (midazolam hydroxylation)", "format": "in vitro ADME", "details": "human, human liver microsomes, probe midazolam (hydroxylation to 1′-hydroxymidazolam), 10 μM test compound, midazolam at approximately its Km", "in_short": "as §1"}, "rats": {"test_system": "rats", "assay": "Nicotine self-administration assay (rats), with food responding", "format": "in vivo", "details": "several doses", "description": "For all experiments, rats weighing 250-300 g were housed in groups of […] per cage, in a temperature-controlled vivarium under a reversed 12-h light/dark cycle (lights off at 8 am). Food and water were provided ad libitum until behavioral training commences. During training, rats were food-restricted to maintain ˜85-90% of their free-feeding body weight. Behavioral testing occurred during the dark portion of the light/dark cycle between the hours of 9 am-1 pm, during the early portion of the dark phase of the cycle. All procedures were conducted in strict adherence with the National Institutes of Health Guide for the Care and Use of Laboratory Animals and are approved by the Institutional Animal Care and Use Committee of The Scripps Research Institute.\nRats were anesthetized by inhalation of 1-3% isoflurane in oxygen and silastic catheters were inserted into the jugular veins. Briefly, the catheters consist of a 14 cm length of silastic tubing fitted to a guide cannula (Plastics One, Wallingford, Conn.), bent at a curved right angle and encased in dental acrylic. The catheter tubing was passed subcutaneously from each animal's back to the right jugular vein, and 1 cm length of the catheter tip was inserted into the vein. […] During the TO period, responding on the lever was recorded but without scheduled consequence. […]"}, "[2]": {"details": "CHO-OX1 cells, [Ca2+]i by FLIPR, antagonist dose-range 0.1 nM-10 μM, EC90 of OXA, read-out: OX1"}}, "note": "pIC50: −log10 of the molar value. Read-outs that look alike come from different tables or passages of the source."}
{"smiles": "Cc1ccc(-n2nccn2)c(C(=O)N2CCC[C@@H](C)[C@H]2CNc2ccc(C#N)cn2)c1", "note": "[Example A46, 6-((((2S,3R)-3-Methyl-1-(5-methyl-2-(2H-1,2,3-triazol-2-yl)benzoyl)piperidin-2-yl)methyl)amino)nicotinonitrile]", "values": [{"measurement": "% CYP3A4 Inhibition", "setting": "[1]; 10 µM", "value": 53, "unit": "%"}, {"measurement": "pIC50", "setting": "OX1; [2]", "value": 8.30}]}
{"smiles": "C[C@@H]1CCCN(C(=O)c2cccc(F)c2-c2ncccn2)[C@@H]1CNc1ncc(C(F)(F)F)cn1", "note": "[Example A230, (3-Fluoro-2-(pyrimidin-2-yl)phenyl)((2S,3R)-3-methyl-2-(((5-(trifluoromethyl)pyrimidin-2-yl)amino)methyl)piperidin-1-yl)methanone]", "values": [{"measurement": "% CYP3A4 Inhibition", "setting": "[1]", "value": 50, "unit": "%"}, {"measurement": "pIC50", "setting": "OX1; [2]", "value": 8.30}]}
{"smiles": "C[C@@H]1CCCN(C(=O)c2cc(F)c(F)cc2-c2ncccn2)[C@@H]1CNc1ccc(C(F)(F)F)cn1", "note": "[Example A242, (4,5-Difluoro-2-(pyrimidin-2-yl)phenyl)((2S,3R)-3-methyl-2-(((5-(trifluoromethyl)pyridin-2-yl)amino)methyl)piperidin-1-yl)methanone]", "values": [{"measurement": "% CYP3A4 Inhibition", "setting": "[1]", "value": 87, "unit": "%"}, {"measurement": "pIC50", "setting": "OX1; [2]", "value": 7.62}]}
{"smiles": "Cc1nc(C(=O)N2CCC[C@@H](C)[C@H]2CNc2ccc(C(F)(F)F)cn2)c(-c2ccc(F)cc2)s1", "note": "(racemic) [Example 11, rac-cis-(5-(4-Fluorophenyl)-2-methylthiazol-4-yl)(3-methyl-2-(((5-(trifluoromethyl)pyridin-2-yl)amino)methyl)piperidin-1-yl)methanone]", "values": [{"measurement": "pIC50", "setting": "OX1; Table 2, CHO-OX1 cells, EC90 of OXA, read-out: IC50 Bioactivity OX1", "value": 8.10}, {"measurement": "pIC50", "setting": "OX1; Table 6, racemate vs enantiomers, read-out: OX1 IC50", "value": 8.10}, {"measurement": "food self-administration (SA)", "setting": "Hcrt-R1 WT and KO mice", "value": "no effect"}]}
{"smiles": "CC1(C)OC[C@H](NC(=O)Nc2ccc(Br)cc2Br)[C@H](c2ccccc2)O1", "note": "[JNJ10397049]", "values": [{"measurement": "food self-administration (SA)", "setting": "Hcrt-R1 WT and KO mice", "value": "no effect"}, {"measurement": "nicotine SA", "setting": "Hcrt-R1 WT and KO mice; KO mice", "value": "marginal decrease"}, {"measurement": "nicotine SA", "setting": "Hcrt-R1 WT and KO mice; WT mice", "value": "no effect"}]}
{"smiles": "Cc1ccc(-c2cnn(C)c2)c(C(=O)N2CCC[C@@H](C)[C@H]2CNc2nc3cc(Cl)ccc3o2)c1", "note": "[Example A40, ((2S,3R)-2-(((5-Chlorobenzo[d]oxazol-2-yl)amino)methyl)-3-methylpiperidin-1-yl)(5-methyl-2-(1-methyl-1H-pyrazol-4-yl)phenyl)methanone]", "values": [{"measurement": "% CYP3A4 Inhibition", "setting": "[1]; 10 µM", "value": 96, "unit": "%"}, {"measurement": "pIC50", "setting": "OX1; [2]", "value": 7.70}]}
{"smiles": "Cc1ccc(-c2cnn(C)c2)c(C(=O)N2CCC[C@@H](C)[C@H]2CNc2ccc(C(F)(F)F)cn2)c1", "note": "[Example A1, ((2S,3R)-3-Methyl-2-(((5-(trifluoromethyl)pyridin-2-yl)amino)methyl)piperidin-1-yl)(5-methyl-2-(1-methyl-1H-pyrazol-4-yl)phenyl)methanone]", "values": [{"measurement": "inhibition at 10 µM", "setting": "CYP3A4", "value": 98, "unit": "%"}, {"measurement": "food intake", "setting": "rats", "value": "does not have a significant effect"}, {"measurement": "nicotine self-administration", "setting": "rats", "value": "dose-dependent reduction"}]}
